# From US11453640B2, “Small molecules for disrupting the super elongation complex and inhibiting transcription elongation for cancer therapy” (NORTHWESTERN UNIVERSITY, priority 2018, dated 2022)
# Assays:
# [1] = test system: SEC subunits AFF1, AFF4, ELL2, CCNT1 and CDK9 mRNA; test: RNA-seq of SEC subunit mRNA expression in HEK293T cells; type: cell-based, human; conditions: 20 μM, 12 hr
# Description: FIG. 8, related to FIG. 1. Peptidomimetic identification of disruptors of the AFF4-CCNT1 interaction within the Super Elongation Complex. (A) Schematic of AlphaLISA assay of the AFF4-CCNT1 interaction. Anti-GST AlphaLISA acceptor beads and AlphaScreen streptavidin donor beads (Perkin Elmer) were used to detect the interaction of GST-CCNT1 (AA1-300) and biotin-AFF4 (AA32-67). (B-C) Optimization of the AlphaLISA assay with various biotin-AFF4 peptide and GST-CCNT1 concentrations. No CCNT1 (B) and mutant AFF4 (C) were used as negative controls. Data are represented as Mean+/−SD. (D) Scheme for chemical synthesis of SEC inhibitors KL-1 and KL-2. Reagents and conditions: a. LDA, THF, −78° C., 15 min., then diethyl oxalate, −78° C. to room temperature. b. […] 293T cells were treated with 20 μM of KL-1 or KL-2 for 6 hr, and the protein levels of BRD2, BRD4, Pol II (RPB1), SPT5, MED26, MYC, HSP90 (load control) and Tubulin (load control) were measured by western blotting. […] HCT-116 cells were treated with 20 μM of KL-1 or KL-2 for 6 hr, and the protein levels of AFF1, AFF4, CCNT1, CDK9 and Tubulin (load control) were determined by western blotting. […] The log2CPM (counts per million) of the SEC subunits were calculated with HTseq. […]
# RNA-seq Analysis. […] Exonic reads were assigned to specific genes from Ensembl release 75 using Bioconductor package GenomicRanges countOverlaps. […]
# [2] = test system: heat shock inducible genes in HCT-116 cells; test: Heat shock induction in HCT-116 cells (Pol II ChIP-seq); type: cell-based, human; conditions: 5 hr pretreatment, 42° C. 1 hr
# Procedure: FIG. 5. SEC inhibitors block transcription elongation in SEC-dependent rapid response models. (A-B) Genome browser tracks of Pol II ChIP-seq at the FOS, HSPD1 and HSPE1 genes after 1 hr heat shock of HCT-116 cells treated with vehicle (DMSO) or the indicated SEC inhibitors. HCT-116 cells were pretreated with inhibitors for 5 hr at 37° C. before exchanging medium with conditioned 42° C. medium. Dark and light colors indicate the 37 and 42° C. conditions, respectively. (C) Genome-wide identification of heat shock-induced genes with fold change of reads per million in gene bodies and pausing index. Red dots are the 136 heat shock-induced genes according to Pol II signals (fold change of reads per million in gene bodies >1.5 and pausing index decreased >1.5-fold in the DMSO-treated condition). […] Box plot analysis depicts the log2 fold changes of reads per million in gene bodies (E) (y axis) after heat shock with pretreatment of vehicle or SEC inhibitors. […]
# Chromatin Immunoprecipitation Sequencing. […] ChIP-seq reads were aligned to the Drosophila genome (UCSC dm3) or human genome (UCSC hgl9). Alignments were processed with Bowtie version 1.1.2, allowing only uniquely mapping reads with up to two mismatches within the 50 bp read. The resulting reads were extended to 150 bp toward the interior of the sequenced fragment and normalized to total reads aligned (reads per million, r.p.m.). […]
smiles,measurement,setting,value
"COc1cccc(C(=O)CC(=O)C(=O)Nc2cc(Cl)ccc2C)c1 [KL-1, N-(5-chloro-2-methylphenyl)-4-oxo-4-(3-methoxyphenyl)-2-oxobutanamide]",mRNA levels of SEC components,[1],do not result in decreased mRNA levels of SEC components
same,induction of heat shock inducible genes,[2],block induction of known heat shock inducible genes
